Measurements as given in ChEMBL document CHEMBL1129202, “Palladium-catalysed synthesis of some biologically active 5, 6-disubstituted uracils” (Bioorg Med Chem Lett, 1996).

Tested on: CCRF-CEM
Experiment: In vitro cytotoxic activity against CCRF-CEM human lymphoblastoid cells in culture.
Assay type: functional, cell-based

Structure (SMILES) | IC50 [µM]
COc1ccc(C(=O)/C=C/c2cc(O)nc(O)n2)cc1 | 2.2
Cc1ccc(C(=O)/C=C/c2nc(O)nc(O)c2Br)cc1 | 2.6
Cc1ccc(C(=O)/C=C/c2cc(O)nc(O)n2)cc1 | 1.8
Cc1ccc(C(=O)/C=C/c2nc(O)nc(O)c2Cl)cc1 | 12.2
Cc1ccc(C(=O)/C=C/c2nc(O)nc(O)c2I)cc1 | 1.4
